Publication PMC7816196, “Antitubercular 2-Pyrazolylpyrimidinones: Structure–Activity Relationship and Mode-of-Action Studies” (Journal of Medicinal Chemistry, 2021)
≈ marks a conversion by molar mass, not a printed value. Like-named read-outs stand apart in the source and are kept apart here.

Key:
[1] = Kinetic aqueous solubility at pH 7.4; type: physicochemical; details: read-out: Solubility
Protocol: 3) In vitro ADME - assays
The kinetic solubility assay was p erfo rmed using a miniaturised shake flask method. 10 mM stock solutions of each of the test compounds were used to prepare calibration standards (10-220 µM) in DMSO. The same 10 mM stock soluti ons were accurately dispensed in duplicat e into 96-well plates and the DMSO dried down (MiVac GeneVac, 90 min, 37 °C). Thereafter, the samples were reconstituted (200 µM) in phosphate buffered saline (pH 7. 4) and shaken (20 hours,25 °C). The solutions were centrifuged, and the supernatant was an alysed by means of HPLC-DAD (Agilent 1200 Rapid Resolution HPLC with a diode array detector). Best fit calibration curves were constructed using the calibration standards, which were used to determine the aqueous samples’ solubility.4
The metabolic stability assay was performed in dup licate in a 96-well micro t itre plate. The test compounds (0.1 µM) were incubated individually in mouse, rat and pooled human liver microsomes (final protei n concentration of 0.4 m g/mL; XenoTech, Lenexa, KS), suspended in 0.1M phosphate buffer (pH 7.4) for predetermined time points, in the presence and abs ence of the cofactor NADPH (1 mM). Reactions were quenched by adding 300 µL of ice cold acetonitrile containing internal standard (carbamazepine, 0.0236 µg/mL). The samples were centrifuged and test in the supernatant were an alysed by means of LC-MS/MS ((Agilent Rapid Resolution HPLC, AB SCIEX 4500 MS). The rel ative loss of parent compound over time w as monitored and plots (concentration vs. time) were prepared per compound to determine the first order rate constant for compound depletion. This was in turn used to calculate h alf-life, in vitro intrinsic clearance and in vivo hepatic extraction ratio. Metabolite search es were not conducted during the met abolic stability assay.5

[2] = tested on: Mtb H37Rv; assay: MIC against Mtb H37Rv, Alamar Blue broth microdilution; type: cell-based, Mycobacterium tuberculosis
[3] = phosphate buffered saline, pH 7.4, aqueous (kinetic) solubility at pH 7.4
[4] = Mycobacterium tuberculosis, H37RV, supplement csv, medium not stated

Row | Molecule | solubility at 20 h [1, 3] [µM] | also measured
1 | 2-(3-Methyl-5-oxo-2,5-dihydro-1H-pyrazol-1-yl)-6-phenylpyrimidin-4(1H)-one [Compound 13] |  | solubility at 20 h ([1]; aqueous (kinetic) solubility at pH 7.4): 190 µM; MIC [2]: >125 µM; MIC ([2]; supplement csv, medium not stated): >125 µM
2 | COc1cc(-c2ccccc2)nc(-n2nc(C)cc2C)n1 [Compound 3, 2-(3,5-Dimethyl-1H-pyrazol-1-yl)-4-methoxy-6-phenylpyrimidine] | ≥ 200 | 
3 | Cc1cc(C)n(-c2nc(-c3ccccc3)cc(=O)n2C)n1 [Compound 4, 2-(3,5-Dimethyl-1H-pyrazol-1-yl)-3-methyl-6-phenylpyrimidin-4(3H)-one] | ≥ 200 | 
4 | Cc1cc(O)nc(-n2nc(C)cc2C)n1 [Compound 11, 2-(3,5-Dimethyl-1H-pyrazol-1-yl)-6-methylpyrimidin-4(3H)-one] |  | loss in activity ([2]; CH3 or CF3 at R1 instead of phenyl): 10–15 fold
5 | Cn1ccnc1-c1nc(-c2ccccc2)cc(=O)[nH]1 [Compound 18, 2-(1-Methyl-1H-imidazole-2-yl)-6-phenylpyrimidin-4(1H)-one] | ≥ 200 | 
6 | Cc1cc(C)n(-c2nc(-c3ccc(F)cc3)cc(=O)[nH]2)n1 [Compound 19, 2-(3,5-Dimethyl-1H-pyrazol-1-yl)-6-(4-fluorophenyl)pyrimidin-4(3H)-one] |  | MIC [2, 4]: 1 µM (≈ 0.284 µg/mL)
7 | Cc1cc(C)n(-c2nc(-c3cccnc3)cc(=O)[nH]2)n1 [Compound 21, 2-(3,5-Dimethyl-1H-pyrazol-1-yl)-6-(pyridin-3-yl)pyrimidin-4(3H)-one] | ≥ 200 | 
8 | Cc1cc(C)n(-c2nc(C(=O)Nc3ccc(F)cc3)cc(=O)[nH]2)n1 [Compound 26, 2-(3,5-Dimethyl-1H-pyrazol-1-yl)-N-(4-fluorophenyl)-6-oxo-1,6-dihydropyrimidine-4-carboxamide] | ≥ 200 | 
9 | CCc1cc(C)nn1-c1nc(C(F)(F)F)cc(=O)[nH]1 [Compound 30, 2-(5-Ethyl-3-methyl-1H-pyrazol-1-yl)-6-(trifluoromethyl)pyrimidin-4(3H)-one] | ≥ 200 | 
10 | Cc1cc(-c2ccccc2)n(-c2nc(C(F)(F)F)cc(=O)[nH]2)n1 [Compound 32, 2-(3-Methyl-5-phenyl-1H-pyrazol-1-yl)-6-(trifluoromethyl)pyrimidin-4(3H)-one] | ≥ 200 | 
11 | Cc1cc(N)n(-c2nc(C(F)(F)F)cc(=O)[nH]2)n1 [Compound 33, 2-(5-Amino-3-methyl-1H-pyrazol-1-yl)-6-(trifluoromethyl)pyrimidin-4(3H)-one] | ≥ 200 | 
12 | CCNc1cc(C)nn1-c1nc(C(F)(F)F)cc(=O)[nH]1 [Compound 34, 2-(5-(Ethylamino)-3-methyl-1H-pyrazol-1-yl)-6-(trifluoromethyl)pyrimidin-4(3H)-one] |  | MIC [2, 4]: 6 µM (≈ 1.72 µg/mL)
13 | Cc1cc(NCCN(C)C)n(-c2nc(C(F)(F)F)cc(=O)[nH]2)n1 [Compound 36, 2-(5-((2-(Dimethylamino)ethyl)amino)-3-methyl-1H-pyrazol-1-yl)-6-(trifluoromethyl)pyrimidin-4(3H)-one] | ≥ 200 | 
